Assay results as given in patent US20210332024A1, “MODULATORS OF PIN1 ACTIVITY AND USES THEREOF” (Yeda Research and Development Co. Ltd., priority 2019, published 2021).

Columns and labels:
Acute toxic model = format: in vivo, mice; settings: 10, 20 or 40 mg/kg intraperitoneally every day for two weeks
Procedure: Toxicity of Pin1-3 was then evaluated in an acute toxic model. Mice were injected with 10, 20 or 40 mg/kg Pin1-3 intraperitoneally every day for two weeks.

[1] = test system: Pin1-knockout pancreatic cancer cells; assay: Organoid growth in Matrigel, Pin1-knockout PATU-8988T; format: cell-based; settings: 1 μM, 9 days
Procedure: (§1) As three dimensional (3D) organoid models can reflect in vivo results better than monolayer cell culture [Baker et al., Trends Cancer Res 2016, 2:176-190], the anti-proliferative activity of Pin1-3 in PATU-8988T was further evaluated in wild-type or Pin1-knockout cells grown as organoids in Matrigel™ droplets. Cells were treated for 9 days with Pin1-3 (or Pin1-3-AcA or vehicle as a control), replenishing the compound in media every 3 days.

[2] = test system: transplanted EGFP-labeled neuroblastoma cells; assay: Primary tumor derived allograft (PDA) neuroblastoma model in zebrafish embryos; format: in vivo; settings: 100 μM in the fish water, five days
Procedure: The anti-tumor activity of Pin1-3 was then assessed on the maintenance of fully transformed neuroblastoma cells in vivo in primary tumor derived allograft (PDA) models constructed in transplanted zebrafish embryos. EGFP-labeled neuroblastoma cells were dissected from 4-month-old Tg(dβh:MYCN;dβh:EGFP) donor zebrafish, disaggregated, counted and 200-400 GFP-labeled tumor cells were injected intravenously into the Duct of Cuvier (common cardinal vein) of 2 dpf zebrafish embryos [He et al., J Pathol 2012, 227:431-445]. One day after injection, 100 μM Pin1-3 or the DMSO control was added to the fish water containing embryos bearing the transplanted EGFP-labeled neuroblastoma cells. Five days later, the area of the EGFP-labeled tumor mass in treated embryos was quantified.

germinal centers = assay: Germinal center size after NP-OVA immunization; format: in vivo, mice; settings: IP 40 mg/kg on days 7 and 9 post immunization, day 11
Procedure: 12 wild-type mice were immunized with OVA coupled to the hapten 4-hydroxy-3-nitrophenylacetyl (NP-OVA) precipitated in alum. The mice were injected with two doses of Pin1-3 (IP; 40 mg/kg) or vehicle on days 7 and 9 post immunization, and on day 11 the mice were sacrificed and germinal centers size was assessed in lymph nodes by flow cytometry.

[3] = test system: wild-type 8988T pancreatic cancer cells; assay: Organoid growth in Matrigel, wild-type PATU-8988T; format: cell-based; settings: 1 μM, 9 days
Procedure: as §1

catalytic domain of Pin1 = target: T1, catalytic domain of Pin1 (Homo sapiens, UniProt Q13526); assay: Intact protein LC/MS labeling of Pin1; format: binding
T1 construct: The purified catalytic domain of Pin1 was incubated with the fragment library
T1 sequence (Q13526 52-163 limits assumed): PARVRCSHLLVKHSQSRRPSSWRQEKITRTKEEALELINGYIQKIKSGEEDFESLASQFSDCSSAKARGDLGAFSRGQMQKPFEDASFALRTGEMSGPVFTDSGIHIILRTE
Procedure: 993 compounds were transferred to a 384-well plate working copy by combining 0.5 μl of 20 mM stock solution of four or five compounds per well. The catalytic domain of Pin1 (2 μM) in 20 mM Tris, 75 mM NaCl, pH 7.5 was incubated with 200 μM for each compound and moderately shaken for 24 hours at 4° C. The reaction was stopped by the addition of formic acid to 0.4% (v/v) final concentration.
Liquid chromatography/mass spectroscopy runs were performed on an Acquity™ UPLC® H-class system (Waters) in positive ion mode using electrospray ionization (ESI). UPLC separation was performed on a C4 column (300 Å, 1.7 μM, […]). The column was held at 40° C., and the autosampler at 10° C. Mobile solution A was 0.1% formic acid in water and mobile phase B was 0.1% formic acid in acetonitrile. Run flow was 0.4 ml/minute; and a gradient of 20% B for 2 minutes, increasing linearly to 60% B for 3 minutes, holding at 60% B for 1.5 minutes, changing to 0% B in 0.1 minute and holding at 0% for 1.4 minutes, was used. Desolvation temperature was 500° C. with a flow rate of 1000 liters/hour. The capillary voltage was 0.69 kV and cone voltage 46 V. Raw data was processed using OpenLynx™ software and deconvoluted using the MaxEnt tool. Labeling assignment was performed as described in Resnick et al. [J Am Chem Soc 2019, 141:8951-8968].
For the screening 2 μl of each of the 448 click products as 50 μM DMSO stocks were transferred into a 384-well plate working plate. 48 μl of catalytic domain of Pin1 (2 μM) in 20 mM Tris (pH 7.5) with 75 mM NaCl were added and moderately shaken and incubated for 15 minutes at room temperature. The reaction was stopped by the addition of formic acid to 0.4% (v/v) final concentration (20 μl). The mixtures were analyzed by liquid chromatography/mass spectroscopy analogously to the electrophile library incubations described herein. Hits were retrospectively analyzed by liquid chromatography/mass spectroscopy (LC-MS) to ensure reaction completion.
For each measured well, processed peaks were searched to match the mass of unlabeled protein or common small adducts of the unlabeled protein, which were found in the control sample or labeled protein. Labeling percentage for a compound was determined as the labeling of a specific compound divided by the overall detected protein species. Peaks whose mass could not be assigned were discarded from the overall labeling calculation. Data was analyzed using a python script for processing the MaxEnt-deconvoluted spectra. Peaks were normalized from ion counts to percentages, where the highest peak is defined as 100%. The unlabeled protein mass is deduced from a reference well that contains just the protein.
The purified catalytic domain of Pin1 was incubated with the fragment library (2 μM protein, 200 μM compound; 24 hours at 4° C.), followed by intact protein liquid chromatography/mass-spectrometry (LC/MS) to identify and quantify compound labeling. FIG. 1 depicts an example of a compound identified in this manner.
Based on the docking predictions, a total of 26 compounds that featured a range of small or bulky aliphatic, arylic, biphenylic or heterocyclic side-chains (structures depicted in FIG. 5), were synthesized or purchased. In order to identify potent binders, the irreversible labeling efficiency of these second-generation compounds was assessed alongside the original screening hits under more stringent conditions, with a 1:1 ratio of protein to compound (2 μM compound; 1 hour at room temperature).
For further optimization of the lipophilic moiety, an alkyne side chain-bearing analog was prepared, which was derivatized with 448 different azides using copper-catalyzed azide-alkyne cycloaddition (CuAAC).

[4] = test system: PDX (patient-derived xenograft) tumors; assay: PDX orthotopic xenograft mouse model; format: in vivo; settings: IP 2 or 4 mg/kg every day, 6 weeks
Procedure: 4×2 mm PDX (patient-derived xenograft) tumors were transplanted into NSC mouse pancreas (orthotopic xenografts). After 1 week of the transplantation, treatment of mice with Pin1-3 began. Mice were treated (IP) with Pin1-3 diluted solution (as a control), or 2 or 4 mg/kg […] every day. Tumor size were measured and mice were sacrificed after 6 weeks to collect tumor tissue (n=5).

PDAC organoids = assay: PDAC organoid growth; format: cell-based, human; settings: treated for 7 days
Procedure: Pancreatic ductal adenocarcinoma (PDAC) cells (derived from a human patient) were treated with Pin1-3 for 3 days. PDAC organoids were treated with Pin1-3 for 7 days (day 7 to day 14).

CC(C)(C)CN(C(=O)CCl)C1CCS(=O)(=O)C1 (centres unmarked) [Pin1-3, 2-chloro-N-(sulfolan-3-yl)-N-neopentylacetamide]
Adverse effects (Acute toxic model): No adverse effects
Post-mortem examination (Acute toxic model): no pathologies
Weight (Acute toxic model): normal
Organoid growth [1]: no effect
EGFP-labeled tumor mass [2]: tumor masses decreased in size
Germinal centers size (FAS^Hi CD38^− GC cells, flow cytometry) (germinal centers): significantly larger germinal centers
Organoid growth [3]: significantly retarded organoid growth
Labeling [%] (catalytic domain of Pin1; 2 μM Pin1 with 2 μM test compound for 15 minutes at room temperature): 10%
Labeling [%] (catalytic domain of Pin1; 2 μM Pin1 with 2 μM test compound for 1 hour at room temperature): 48%
PDX tumor growth [4]: inhibited PDX tumor growth in mice in a dose-dependent manner
PDAC organoid growth (PDAC organoids): inhibited PDAC organoid growth in a dose-dependent manner
